Assay results taken from patent US9161944B2, “Method for preventing cancer metastasis” (INSERM (INSTITUT NATIONAL DE LA SANTE ET DE LA SANTE ET DE …, priority 2010, dated 2015).
pIC50: −log10 of the molar value.

Legend:
IKCa = molecular target: T1, IKCa (Homo sapiens, UniProt O15554); assay: Whole-cell K+ currents in HEK293 cells expressing recombinant IKCa; format: cell-based; details: 10 μM, FIG. 9B
T1 construct: expressed in transfected cells; host or cells: HEK293
Experimental: FIG. 9. Selectivity effect of JPH1701 on SKCa subtype and on IKCa channels. FIG. 9A) Example of whole-cell K^+ currents recorded in HEK293 cells expressing recombinants SK1, SK2, SK3 and IKCa channels before and after application of 10 μM JPH1701 (upper graphs: SK1 and SK2 respectively, bottom graphs: SK3 and IKCa respectively). Currents were generated by ramp protocol from −100 mV to +60 mV in 500 ms from a constant holding of 0 mV and with a pCa 6. FIG. 9B) Histograms showing the effect of 10 μM JPH1701 on SKCa (SK1, SK2, SK3) and IKCa current amplitudes recorded at 0 mV. […] For each channel (SK1, SK2, SK3 and IKCa) the left column (pale grey) represents the control result and the right column (dark grey) represents the result after JPH1701 application.
The selectivity of JPH1701 toward the others members of the SKCa/IKCa channels was tested. […] The experimental protocol was similar to the one used in FIG. 8. JPH1701 was tested for membrane potential from +60 mV to −100 mV on 500 msec.

[1] = tested on: LPA (lysophosphatidic acid) receptor; assay: LPA receptor binding
Experimental: Indeed, the molecular structure of JPH1701 resembles to LPA and PAF. This similarity between the molecular structures prompted us to analyse whether some of the JPH1701's effects were mediated through its binding to the PAF receptor or to the LPA (lysophosphatidic acid) receptor. […] The same results were obtained with LPA receptor (105.3±8.0% and 87.2±4.7% of LPA binding respectively at 0.3 and 2 μM JPH1701). It has been also reported that edelfosine inhibits enzyme activity like protein kinase C or phospholipase C that may explain some of its cytostatic and cytotoxic effects.

PKCs = PKCs activity (alpha, Beta 1, Beta 2, Gamma, Delta, Epsilon, Zeta, Eta, Theta, Iota); format: biochemical; details: ten PKCs, FIG. 11C
Experimental: (§1) FIG. 11: Effects of JPH1701 on PAF receptor, PLC and PKCs activities. FIG. 11A) Histogram showing the percentage of control specific binding of 3H-C16-PAF to recombinant PAF receptor obtained from membrane homogenates of CHO cells by 0.3 and 2 μM edelfosine and by 0.3 and 2 μM JPH1701. FIG. 11B) Histogram showing the percentage of control agonist response (% effect i.e: increase of intracellular calcium concentration) of 0.3 and 2 μM edelfosine and JPH1701 on PAF receptor normalized to the response induced by 100 nM C16-PAF. […] FIG. 11C-D) Dose responses curves showing the effect of JPH1701 on PKCs (FIG. 11C, PKCs are: alpha, Beta 1, Beta 2, Gamma, Delta, Epsilon, Zeta, Eta, Theta, Iota) and PhosphoLipase C (PLC) activities (FIG. 11D).

PhosphoLipase C (PLC) = assay: PhosphoLipase C activity; format: biochemical; details: FIG. 11D
Experimental: as §1

[2] = tested on: endogenously HEK potassium current; assay: Endogenous HEK potassium current (patch clamp); format: cell-based; details: applied concentration range; data not shown
Experimental: Whatever the concentration tested approximately 40 sec was needed to reduce 50% of the amplitude of the current. […] Increasing intracellular calcium concentration by the addition of 5 μM A23187 totally reversed the effect of JPH1701 (data not shown).

SK3/KCa2.3 channel = SK3/KCa2.3 channel (Homo sapiens, UniProt Q9UGI6); assay: Whole-cell patch clamp on HEK293 cells expressing SK3; format: cell-based; parameters: expressed in transfected cells; host or cells: HEK293, lentiviral transduction, clonal selection
Experimental: The percentages of inhibition represent the ratio (SK3 current amplitude and chord conductance (in the presence of 10 μM JPH1701)/SK3 current amplitude in control experiments). Black bars show current at 0 mV and grey bars indicate the chord conductance. […] Columns, mean, bars, SEM, (5 cells for racemic mix and 4 cells for + and − forms).
MDA-MB-435s and HEK293 cells were transduced with lentiviral vector at multiplicities of infection (MOI) of 1 to 3 in the presence of polybrene (4 μg/ml, Sigma).
Experiments were performed with cells seeded into 35-mm Petri dishes at 3000 cells per cm2. All experiments were performed using the conventional whole-cell recording configuration of the patch-clamp technique as previously described. PCa solution was 7 and 6.4 respectively for MDA-MB-435s and HEK293-SK3/KCa2.3 cells.
Briefly, experiments were conducted using Axopatch 200B patch-clamp amplifier (Axon Instrument) and data, digitized with 1322-A Digidata converter (Axon Instrument), were stored on a computer using Clampex of pClamp 9.2 software (Axon Instru-ment). The patch-clamp data was analyzed using both Clampfit 9.2 and Origin 7.0 software (Microcal Inc., Northampton, Mass., USA).
The pipette solution for the whole-cell recordings contained (in mM): K-glutamate 125, KCl 20, MgCl2 1, Mg-ATP 1, HEPES 10, and pH was adjusted to 7.2 with KOH and various concentrations of CaCl2 and EGTA were added to obtain calculated pCa=7 (0.37 mM CaCl2 and 10 mM EGTA) or pCa=6.4 (0.7 mM CaCl2 and 1 mM EGTA).
We next developed HEK cells expressing SK3/KCa2.3 channel in order to test directly analogues on SK3 activity measured using patch-clamp technique (FIG. 8). […] The JPH1701-induced inhibition of SK3 current was analysed at 0 mV and the entire time course of the experiment is depicted in FIG. 8A.
Current activity has been measured in HEK 293 LvSK3 and in MDA-MB-435s cells. The percentages represent the inhibition of current and of conductance by compounds on SK3 channel in HEK 293 cells.

T1 sequence (O15554 whole entry): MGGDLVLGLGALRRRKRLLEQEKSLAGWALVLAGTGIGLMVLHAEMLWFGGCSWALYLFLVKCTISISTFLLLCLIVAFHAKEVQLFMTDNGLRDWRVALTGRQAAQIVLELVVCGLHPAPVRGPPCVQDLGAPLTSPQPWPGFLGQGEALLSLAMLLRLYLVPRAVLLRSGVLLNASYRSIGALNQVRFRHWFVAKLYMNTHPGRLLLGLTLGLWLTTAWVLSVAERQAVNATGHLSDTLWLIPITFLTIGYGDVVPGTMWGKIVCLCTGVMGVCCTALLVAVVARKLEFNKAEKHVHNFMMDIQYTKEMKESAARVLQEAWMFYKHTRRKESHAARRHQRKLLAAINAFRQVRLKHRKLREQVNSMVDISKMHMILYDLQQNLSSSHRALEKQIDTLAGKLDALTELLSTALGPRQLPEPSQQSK

hexadecyloxy-2-O-methyl-sn-glycerol-lactose [JPH1701]
Effect on IKCa currents (IKCa): inactive | % of LPA binding ([1]; 0.3 μM): 105.3±8.0% | % of LPA binding ([1]; 2 μM): 87.2±4.7% | Effect on PKC activity (PKCs): did not affect | pIC50 (PhosphoLipase C (PLC)): 5.15 | Effect on endogenous HEK potassium current [2]: not significantly affected | Effect on SK3 current amplitude at 0 mV (SK3/KCa2.3 channel; 10 μM, FIG. 9B, ranking SK3>SK1): significantly reduced | Reduction of the amplitude of the SK3 current at 0 mV (SK3/KCa2.3 channel; 10 μM, after 120 sec): about 70% | Time needed to reduce 50% of the amplitude of the current (SK3/KCa2.3 channel; 0.3, 1 and 10 μM, whatever the concentration): approximately 40 sec | Conductance decreasing (SK3/KCa2.3 channel; HEK 293 LvSK3 cells): 66.1 ± 1.5% | Inhibition of I at 0 mV (SK3/KCa2.3 channel; HEK 293 LvSK3 cells, 10 μM stated for JPH1701): 70.1 ± 1.4%
